In US20040037774A1, “Carrier for carrying radioactive substances and methods for using the same” (priority 2002, published 2004):

Columns and labels:
[1] = tested on: human fibroblast cells (normal cells); assay: Affinity test on R-phycoerythrin for normal cells (fluorescent microscopy); assay type: cell-based; settings: 10, 20, 40 μg/ml R-phycoerythrin, 24-hour incubation, FIG. 3B-3D
Protocol: (§1) R-phycoerythrin is complete dialyzed with 150 mM sodium phosphate buffer, and then serial dilution is carried out by using MEM medium as diluent to obtain the R-phycoerythrin dilutions of concentrations between 1-100 μg/ml.
(§2) The tumor cells are human neuroblastoma cells, and normal cells for comparison are human fibroblast cells. First, cells are maintained in MEM medium (pH 7.4) supplemented with 10% fetal bovine serum, and incubate at 37° C. and 95% humidity. Replace the MEM medium every two days. When carrying out cell subculture, first remove the medium, and rinse the cells once with sodium phosphate buffer. Then add 0.25% trypsin-EDTA to detach the cells from the surface of petri dish, and stop the reaction of trypsin-EDTA by giving proper amount of foregoing MEM medium, and thus the cell suspension is obtained. Secondly, seed 100,000 to 400,000 cells onto cover slips placed in a 12-well culture plate and incubate at 37° C. and 95% humidity for 16 hours.
(§3) Following is the affinity test on R-phycoerythrin for human fibroblast cells (normal cells) and human neuroblastoma cells (tumor cells). Take the 12-well culture plate with cells growing on cover slips mentioned in step 2. Remove the medium and rinse the cells once with sodium phosphate buffer. Add 1 mL of R-phycoerythrin dilutions mentioned in step 1 to the cells and follow with incubation at 37° C. and 95% humidity. […]

[2] = tested on: human neuroblastoma cells (tumor cells); assay: Affinity test on R-phycoerythrin for tumor cells (fluorescent microscopy); assay type: cell-based; settings: 10, 20, 40 μg/ml R-phycoerythrin, 24-hour incubation, FIG. 4B-4D
Protocol: as §1, §2, §3

Q: Which results are given for R-phycoerythrin?
A: fluorescent signal in cells (accumulation of R-phycoerythrin) [1]: no fluorescent signal is observed; strength of fluorescence signal in cells (accumulation of R-phycoerythrin) [2]: in accordance with the increasing amount of R-phycoerythrin
